Data set [1] has as its target T1, Progesterone Receptor (PR) (Homo sapiens, UniProt P06401).
T1 construct: endogenous in cells; host or cells: T47D human breast mammary carcinoma cells
T1 sequence (P06401 1-933): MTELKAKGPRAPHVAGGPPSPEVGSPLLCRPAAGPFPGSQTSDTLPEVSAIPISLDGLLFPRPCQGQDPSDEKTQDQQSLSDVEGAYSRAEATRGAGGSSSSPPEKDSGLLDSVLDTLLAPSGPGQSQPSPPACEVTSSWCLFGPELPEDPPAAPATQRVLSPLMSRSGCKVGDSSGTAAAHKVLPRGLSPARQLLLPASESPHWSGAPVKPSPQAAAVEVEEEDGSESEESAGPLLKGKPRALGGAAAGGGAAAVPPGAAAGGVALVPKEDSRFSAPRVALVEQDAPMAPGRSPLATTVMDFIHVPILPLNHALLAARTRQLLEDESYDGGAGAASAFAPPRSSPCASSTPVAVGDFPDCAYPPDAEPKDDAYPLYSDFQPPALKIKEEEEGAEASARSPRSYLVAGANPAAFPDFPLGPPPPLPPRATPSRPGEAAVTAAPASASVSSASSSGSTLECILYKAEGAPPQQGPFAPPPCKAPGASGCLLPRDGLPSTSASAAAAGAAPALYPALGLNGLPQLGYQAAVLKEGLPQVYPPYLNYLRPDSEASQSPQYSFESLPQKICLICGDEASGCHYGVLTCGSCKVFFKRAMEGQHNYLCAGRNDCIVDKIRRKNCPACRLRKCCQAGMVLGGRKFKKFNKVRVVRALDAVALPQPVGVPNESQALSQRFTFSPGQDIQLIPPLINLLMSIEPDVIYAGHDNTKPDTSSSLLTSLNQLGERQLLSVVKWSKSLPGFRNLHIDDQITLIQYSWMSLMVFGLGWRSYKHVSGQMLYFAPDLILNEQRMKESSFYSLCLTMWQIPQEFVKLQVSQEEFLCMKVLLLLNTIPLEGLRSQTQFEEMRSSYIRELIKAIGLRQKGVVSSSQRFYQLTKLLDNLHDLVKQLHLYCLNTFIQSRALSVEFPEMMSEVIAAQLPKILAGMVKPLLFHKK
Description: In vitro functional assay for progesterone receptor (PR) antagonism: inhibition of progesterone-induced alkaline phosphatase expression in T47D cells. It counts as cell-based. Conditions: Screen 1.0, functional progesterone antagonism; antagonist format (5 nM P4), alkaline phosphatase inhibition in T47D human mammary carcinoma cells. An excerpt: 1.0 In vitro Functional Assay for Progesterone Receptor (PR) Antagonism
The assay for PR antagonism takes advantage of the extensively reported modulation of alkaline phosphatase (AP) expression in human breast T47D mammary carcinoma cells {Beck et al., D. P. (1993). The progesterone antagonist RU486 acquires agonist activity upon stimulation of cAMP signalling pathways. Proc Natl Acad Sci USA 90, 4441-4445; Fensome et al. (2002). New progesterone receptor antagonists: 3,3-disubstituted-5-aryloxindoles. Bioorg Med Chem Left 12, 3487-3490; Zhang et al., (2002a). 6-Aryl-1,4-dihydro-benzo d 1,3 oxazin-2-ones: a novel class of potent, selective, and orally active nonsteroidal progesterone receptor antagonists. Journal of Medicinal Chemistry 45, 4379-4382; Zhang et al., (2003). Novel 6-aryl-1,4-dihydrobenzo d oxazine-2-thiones as potent, selective, and orally active nonsteroidal progesterone receptor agonists. Bioorganic & Medicinal Chemistry Letters 13, 1313-1316; Zhang et al., (2002b). Potent nonsteroidal progesterone receptor agonists: synthesis and SAR study of 6-aryl benzoxazines. Bioorganic & Medicinal Chemistry Letters 12, 787-790; Zhang, Z. et al., (2000). In vitro characterization of trimegestone: a new potent and selective progestin. Steroids 65, 637-643.}. […] In the absence of progesterone any agonist activity is also observed as an induction of AP activity. By running the assay in two formats (+/−progesterone (P4)), compounds behaving as PR antagonists, agonists or partials can be identified.
The materials required to grow T47D cells and perform the progesterone-induced AP assay are outlined in Table 1.
Briefly, T47D cells are grown by propagating in DMEM+10% FBS+2 mM Glutamax at 37° C./5% CO2. At 80-90% confluence, the media is exchanged for phenol red free DMEM+5% CS-FCS (Assay media) and cultured for a further 24 hrs at 37° C./5% CO2. T47D cells are then plated at 2.5×10^4 cells/well in 100 μL assay media in sufficient 96 well plates for the assay, in triplicates of each condition. For example, for a 5 point IC50 curve on one compound, this is equivalent to 36 wells (2×18 wells, ±P4). These plates are then cultured for 24 hrs at 37° C./5% CO2, leaving the outside wells blank by the addition of 200 μL PBS.
A 10 mM stock solution of compounds is prepared in DMSO (stored −20° C. in 10 µL aliquots). A 10 mM DMSO stock of RU486 is used as a standard pure PR antagonist. The compounds under investigation are added to assay medium, or a mixture of 0.05% pluronic acid in PBS, ±10 nM P4 to give a final concentration of 20 µM (i.e. 10 µL of the 10 mM stock to […] assay medium ±10 nM P4). The samples are mixed thoroughly and serial dilutions of compounds from 10 µM to 0.1 nM in a 96 well plate, are prepared as follows:
The outside wells are left blank. Assay medium (225 μL) is added to one half of the plate (−P4), rows 3-8, and to the other half of the plate, assay medium +10 nM P4. To row 2, 250 μL of the top concentration of compound (20 μM±10 nM P4) is added. 25 μL of the […] stock from row 2 is removed and added to the 225 μL of assay medium ±10 nM P4 in row 3 and thoroughly mixed. This process is repeated down the plate to row 7 to achieve serial dilutions. The vehicle control is adjusted to contain 0.1% DMSO (i.e. 20 μL to 10 mL assay medium ±10 nM P4 to give a concentration of 0.2% DMSO, add 250 μL to row 8).
100 μL of reagent from the dilution plates are transferred into the corresponding wells containing T47D cells in 100 μL assay medium, to give a final concentration of 10 μM to 0.1 nM compound (5 nM P4 antagonist format). The cells for 20 hrs at 37° C./5% CO2., then media is removed, cells washed with PBS (200 μL) and lysed by placing the cells at −80° C. for 15 min and thawing at room temp. The Freeze-thaw lysis is repeated, then PBS (50 μL) is added to each well. […]

Structures are written as SMILES.

`CCc1nn(CCO)c(CC)c1Oc1ccc(C#N)c(Cl)c1`: the melting point was found to be 85 °C. For the molecule `CCOC(=O)Cn1nc(C2CC2)c(Oc2cc(C)c(C#N)c(C)c2)c1C1CC1` (hydrate or solvate) [Example 38, Ethyl[4-(4-cyano-3,5-dimethylphenoxy)-3,5-dicyclopropyl-1H-pyrazol-1-yl]acetate], the melting point lay within 156 to 157 °C. The molecule `Cc1cc(Oc2c(C3CC3)n[nH]c2C2CC2)cc(C)c1C#N` [Example 4, 4-[(3,5-Dicyclopropyl-1H-pyrazol-4-yl)oxy]-2,6-dimethylbenzonitrile] yielded a concentration for half-maximal inhibition (IC50) in data set [1] of 9 nM. Regarding `CCc1nn(CCO)c(CC)c1Oc1ccc(C#N)cc1` [Example 21, 4-[3,5-Diethyl-1-(2-hydroxy-ethyl)-1H-pyrazol-4-yloxy]-benzonitrile], the melting point was 82 °C.

Molecule `CCc1nn(CCO)c(CC)c1Oc1cc(C)c(C#N)c(C)c1` [Example 27, 4-[3,5-Diethyl-1-(2-hydroxy-ethyl)-1H-pyrazol-4-yloxy]-2,6-dimethyl-benzonitrile] gave a melting point of 97 °C. In turn, `CCOC(=O)Cn1nc(CC)c(Oc2ccc(C#N)cc2)c1CC` [Example 35, Ethyl[4-(4-cyanophenoxy)-3,5-diethyl-1H-pyrazol-1-yl]acetate] showed a melting point of 147 to 149 °C.

Turning to `CNC(=O)Cn1nc(C2CC2)c(Oc2ccc(C#N)cc2)c1C1CC1` [Example 52, 2-[4-(4-Cyanophenoxy)-3,5-dicyclopropyl-1H-pyrazol-1-yl]-N-methylacetamide], the melting point was determined as 163 °C. Take `CNC(=O)Cn1nc(C2CC2)c(Oc2cc(C)c(C#N)c(C)c2)c1C1CC1` [Example 65, 2-[4-(4-Cyano-3,5-dimethylphenoxy)-3,5-dicyclopropyl-1H-pyrazol-1-yl]-N-methyl-acetamide]: the half-inhibitory concentration (IC50) in data set [1] was 3 nM. In the case of `CNC(=O)Cn1nc(C2CC2)c(Oc2cc(C)c(C#N)c(C)c2)c1C` [Example 71, 2-[4-(4-Cyano-3,5-dimethyl-phenoxy)-3-cyclopropyl-5-methyl-1H-pyrazol-1-yl]-N-methyl-acetamide], in data set [1], the 50% inhibitory concentration (IC50) came to 4 nM.

For `CCc1nn(CC#N)c(CC)c1Oc1cc(C)c(C#N)c(C)c1` [Example 87, 4-{[1-(Cyanomethyl)-3,5-diethyl-1H-pyrazol-4-yl]oxy}-2,6-dimethylbenzonitrile], the concentration for half-maximal inhibition (IC50) in data set [1] was determined as 5 nM. Same read-out and setting: for `Cc1cc(Oc2c(C3CC3)nn(Cc3cncnc3)c2C2CC2)cc(C)c1C#N` [Example 126, 4-({3,5-Dicyclopropyl-1-[(pyrimidin-5-yl)methyl]-1H-pyrazol-4-yl}oxy)-2,6-dimethylbenzonitrile] the value was 3 nM; for `CCCn1nc(CC)c(Oc2ccc(C#N)cc2)c1CC` [Example 146, 4-[(3,5-Diethyl-1-propyl-1H-pyrazol-4-yl)oxy]benzonitrile], 6 nM.

Values taken from patent US7482375B2, “Compounds useful in therapy” (Pfizer Inc., priority 2005, dated 2009).
